# Data from ChEMBL document CHEMBL1201862, “PubChem BioAssay data set” (2004).
# Calls of active or inactive are those of the source.
# Key:
# Procathepsin L = Procathepsin L (Homo sapiens, UniProt P07711)
# Aspartyl aminopeptidase = target: T1, Aspartyl aminopeptidase (Plasmodium falciparum 3D7, UniProt Q8I2J3)
# T1 sequence (Q8I2J3 whole entry): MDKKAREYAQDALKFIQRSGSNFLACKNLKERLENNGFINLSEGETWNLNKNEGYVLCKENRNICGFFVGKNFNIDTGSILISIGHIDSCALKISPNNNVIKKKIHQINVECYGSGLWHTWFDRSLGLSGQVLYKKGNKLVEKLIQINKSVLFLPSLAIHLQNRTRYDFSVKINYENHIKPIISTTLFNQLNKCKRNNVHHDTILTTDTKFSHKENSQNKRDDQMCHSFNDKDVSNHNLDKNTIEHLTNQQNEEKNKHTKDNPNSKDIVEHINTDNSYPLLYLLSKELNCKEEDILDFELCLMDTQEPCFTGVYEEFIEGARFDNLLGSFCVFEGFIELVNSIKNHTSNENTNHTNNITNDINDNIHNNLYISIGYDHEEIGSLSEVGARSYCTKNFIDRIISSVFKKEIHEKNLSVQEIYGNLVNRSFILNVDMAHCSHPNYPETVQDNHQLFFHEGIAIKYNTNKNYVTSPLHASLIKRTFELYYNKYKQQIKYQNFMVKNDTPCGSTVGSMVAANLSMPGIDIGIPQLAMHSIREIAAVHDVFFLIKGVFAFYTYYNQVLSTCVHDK
# [1] = Vero E6 cell cytotoxicity, dose response, cytotoxicity control for non-replicating M. tuberculosis project, secondary assay (AID 492998); assay type: functional, VeroE6; conditions: Vero C1008
# [2] = target: Luciferin 4-monooxygenase (Photinus pyralis, UniProt P08659); assay: firefly luciferase enzyme inhibitors, dose response, biochemical, luminescence (AID 1891)
# [3] = cytotoxicity in KRAS-transformed pancreatic duct cells, primary screen, cell-based, fluorescence, HTS (AID 431); assay type: functional; conditions: Homo sapiens;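 note: cell line used: HPDE-C7K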
# cells = assay type: functional
# [4] = Luminescence Cell-Based Dose Confirmation HTS to Identify Inhibitors of Platelet Dense Granule Release. [Related pubchem assays: 1663 (Primary HTS), 1678 (Summary of Project)]; assay type: functional
# [5] = growth suppression of PTEN-null colon cells, dose response, cell-based, HCT116 PTEN knockout (AID 1047); assay type: functional;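 note: HCT116 colon tumor cells with PTEN knocked out; cells exposed to compound for 60 hours before readout; potency for loss of cell viability measured by luminescence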
# [6] = THP-1 cell cytotoxicity, dose response, cytotoxicity control for non-replicating M. tuberculosis project (AID 489025); assay type: functional
# [7] = cytotoxicity in HPDE-C7 cells, cell-based, fluorescence, HTS (AID 430); assay type: functional; conditions: Homo sapiens
# Vero = assay: cells; assay type: functional; conditions: Chlorocebus sabaeus
# [8] = target: T2, Replicative DNA helicase DnaB (Mycobacterium tuberculosis, UniProt P9WMR3); assay: DnaB intein splicing inhibitors, dose response, biochemical, cell-free fluorescence (AID 449749); assay type: functional
# T2 sequence (P9WMR3 whole entry): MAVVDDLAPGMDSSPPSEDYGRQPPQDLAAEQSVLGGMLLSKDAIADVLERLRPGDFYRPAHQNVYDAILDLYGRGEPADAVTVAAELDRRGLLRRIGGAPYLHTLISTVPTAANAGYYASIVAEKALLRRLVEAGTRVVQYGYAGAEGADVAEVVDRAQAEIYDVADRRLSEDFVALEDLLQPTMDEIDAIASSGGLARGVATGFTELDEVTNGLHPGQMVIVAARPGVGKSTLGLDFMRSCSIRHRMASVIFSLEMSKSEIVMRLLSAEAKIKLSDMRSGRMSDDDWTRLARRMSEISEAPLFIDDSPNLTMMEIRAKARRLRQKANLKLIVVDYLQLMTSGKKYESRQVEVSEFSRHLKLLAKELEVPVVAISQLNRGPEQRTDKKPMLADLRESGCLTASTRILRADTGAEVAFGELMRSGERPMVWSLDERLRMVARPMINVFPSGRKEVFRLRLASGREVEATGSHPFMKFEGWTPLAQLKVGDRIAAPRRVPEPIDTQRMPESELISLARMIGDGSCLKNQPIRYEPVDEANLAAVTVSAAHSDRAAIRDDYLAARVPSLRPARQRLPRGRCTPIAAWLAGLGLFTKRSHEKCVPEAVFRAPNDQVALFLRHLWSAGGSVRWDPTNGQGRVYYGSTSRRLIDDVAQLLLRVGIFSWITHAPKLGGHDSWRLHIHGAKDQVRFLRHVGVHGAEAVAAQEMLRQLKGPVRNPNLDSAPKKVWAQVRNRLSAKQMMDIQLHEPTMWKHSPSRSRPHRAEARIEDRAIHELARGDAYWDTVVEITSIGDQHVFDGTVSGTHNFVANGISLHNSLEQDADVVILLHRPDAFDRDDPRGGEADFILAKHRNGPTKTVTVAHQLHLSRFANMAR
# Protein RecA = target: T3, Protein RecA (Mycobacterium tuberculosis, UniProt P9WHJ3); assay: Fluorescence Cell-Free Homogeneous Dose Retest to Identify Inhibitors of RecA-Intein Splicing Activity. [Related pubchem assays (depositor defined):AID2097, AID2223, AID489010, AID492950]; assay type: functional
# T3 sequence (P9WHJ3 whole entry): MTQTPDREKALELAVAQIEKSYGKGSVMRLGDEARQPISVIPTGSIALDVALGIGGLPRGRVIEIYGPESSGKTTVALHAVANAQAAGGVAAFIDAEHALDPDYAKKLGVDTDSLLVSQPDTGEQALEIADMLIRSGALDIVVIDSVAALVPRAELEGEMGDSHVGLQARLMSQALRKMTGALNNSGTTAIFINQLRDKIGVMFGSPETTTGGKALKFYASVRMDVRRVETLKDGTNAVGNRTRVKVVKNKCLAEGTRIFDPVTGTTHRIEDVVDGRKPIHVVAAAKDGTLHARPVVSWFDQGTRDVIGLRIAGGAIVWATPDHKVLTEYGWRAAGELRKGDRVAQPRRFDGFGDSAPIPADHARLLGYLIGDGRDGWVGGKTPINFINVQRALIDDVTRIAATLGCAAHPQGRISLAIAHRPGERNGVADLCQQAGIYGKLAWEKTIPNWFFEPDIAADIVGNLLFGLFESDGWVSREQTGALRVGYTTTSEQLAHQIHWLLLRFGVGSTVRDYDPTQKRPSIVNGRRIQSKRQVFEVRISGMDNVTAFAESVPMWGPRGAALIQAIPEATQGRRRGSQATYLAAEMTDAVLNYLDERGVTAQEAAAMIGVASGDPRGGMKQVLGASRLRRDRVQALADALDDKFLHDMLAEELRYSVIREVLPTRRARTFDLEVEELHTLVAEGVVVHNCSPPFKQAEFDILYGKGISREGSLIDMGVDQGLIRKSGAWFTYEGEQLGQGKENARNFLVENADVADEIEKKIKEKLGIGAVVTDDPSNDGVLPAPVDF
# [9] = growth suppression of beta-catenin-knockout colon cells, dose response, cell-based, HCT116, human colon tumor (AID 1045); assay type: functional;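 note: HCT116 colon tumor cells with beta catenin knocked out; cells exposed to compound for 60 hours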
# Cytochrome P450 2C19 = Cytochrome P450 2C19 (Homo sapiens, UniProt P33261); assay: Cytochrome panel assay with activity outcomes. Panel member name: p450-cyp2c19 Compounds with AC50 equal or less than 10 uM are considered active; assay type: functional; conditions: read-out: AC50
# Cytochrome P450 3A4 = Cytochrome P450 3A4 (Homo sapiens, UniProt P08684);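 note: CYP3A4 tested as one member of a cytochrome P450 panel screen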
# [10] = cytotoxicity in HEK-293T cells, dose response, cytotoxicity control for BCR NF-kB inhibitor project, luminescence, B-cell screen hits (AID 489021); assay type: functional, cell-based;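 note: HEK-293T cells carrying an NF-kB luciferase reporter; cells exposed to compound for about 14 hours before viability readout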
# [11] = target: T4, Carboxy-terminal domain RNA polymerase II polypeptide A small phosphatase 1 (Homo sapiens, UniProt Q9GZU7); assay: inhibitors of CTDSP1, concentration-response testing, biochemical assay, absorbance-based, actives from ultra-high-throughput screening (AID 540297); assay type: functional
# T4 sequence (Q9GZU7 whole entry): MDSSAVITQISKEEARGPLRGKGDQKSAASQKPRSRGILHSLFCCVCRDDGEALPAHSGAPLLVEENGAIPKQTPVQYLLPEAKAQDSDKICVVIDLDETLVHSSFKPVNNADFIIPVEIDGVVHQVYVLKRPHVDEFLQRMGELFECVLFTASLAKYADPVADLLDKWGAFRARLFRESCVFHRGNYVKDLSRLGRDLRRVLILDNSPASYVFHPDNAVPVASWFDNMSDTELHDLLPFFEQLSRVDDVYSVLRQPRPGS
# [12] = target: T5, RNA-binding protein pos-1 (Caenorhabditis elegans, UniProt G5EF15); assay: inhibitors of POS-1/mex-3 RNA binding, dose response, biochemical, fluorescence polarization (AID 1964);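 note: purified POS-1 fused to maltose binding protein made in E. coli; potency of compounds blocking POS-1 binding to fluorescent RNA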
# T5 sequence (G5EF15 whole entry): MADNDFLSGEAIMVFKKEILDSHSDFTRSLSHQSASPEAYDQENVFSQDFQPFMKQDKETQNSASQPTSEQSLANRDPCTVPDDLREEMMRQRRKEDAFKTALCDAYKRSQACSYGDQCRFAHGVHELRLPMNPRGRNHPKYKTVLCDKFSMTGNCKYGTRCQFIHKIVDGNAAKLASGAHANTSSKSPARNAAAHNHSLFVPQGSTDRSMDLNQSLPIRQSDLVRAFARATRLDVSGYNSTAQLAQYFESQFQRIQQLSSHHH
# BJ [13] = assay: cells; assay type: functional, cell-based; conditions: Homo sapiens
# [14] = target: T6, Zinc finger protein mex-5 (Caenorhabditis elegans, UniProt Q9XUB2); assay: MEX-5/TCR-2 RNA interaction inhibitors, dose response, biochemical, C. elegans, fluorescence polarization (AID 1960)
# T6 sequence (Q9XUB2 whole entry): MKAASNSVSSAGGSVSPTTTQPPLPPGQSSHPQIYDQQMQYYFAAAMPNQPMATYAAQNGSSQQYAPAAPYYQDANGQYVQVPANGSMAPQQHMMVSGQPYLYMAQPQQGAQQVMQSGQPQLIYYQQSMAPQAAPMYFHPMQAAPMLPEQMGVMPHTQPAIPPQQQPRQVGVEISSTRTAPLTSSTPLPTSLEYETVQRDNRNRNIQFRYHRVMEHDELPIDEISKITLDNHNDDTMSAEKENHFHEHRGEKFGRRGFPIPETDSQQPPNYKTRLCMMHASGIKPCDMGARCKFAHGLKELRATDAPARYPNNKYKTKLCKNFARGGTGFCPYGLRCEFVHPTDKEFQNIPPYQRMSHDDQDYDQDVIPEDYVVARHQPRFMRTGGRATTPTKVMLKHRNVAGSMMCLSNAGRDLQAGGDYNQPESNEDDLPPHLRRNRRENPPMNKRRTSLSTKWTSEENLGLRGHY
# [15] = cytotoxicity toward DRD oncogenic fibroblasts, dose response, cell-based, non-viral oncogenic, luminescence (AID 1934); assay type: functional; conditions: Homo sapiens
# BJ [16] = assay: cytotoxicity toward Ras-transformed BJeLR fibroblasts, dose response, cell-based, alamar blue fluorescence, cherrypicked samples (AID 2631); assay type: functional; conditions: Homo sapiens;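 note: confirmatory dose-response assay in RAS-dependent BJ fibroblasts engineered with TERT, LT and ST, with cytotoxicity read by fluorescence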
# BJ [17] = assay: cytotoxicity toward BJ-TERT fibroblasts, dose response, cell-based, RAS-independent, luminescence (AID 1933); assay type: functional; conditions: Homo sapiens
# BJ [18] = assay: cytotoxicity toward BJ-TERT-LT-ST fibroblasts, dose response, cell-based, RAS-independent, luminescence (AID 1935); assay type: functional; conditions: Homo sapiens;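 note: BJ fibroblasts immortalized with TERT plus LT and ST oncogenes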
# [19] = Luminescence Cell-Based Dose Response HTS to Identify Inhibitors of 5'UTR Stem-Loop Driven Prion Protein mRNA Translation in H4 Neuroglioblastoma Cells. [Related pubchem assays: 1827 (Project Summary), 1813 (Primary HTS)]; assay type: functional
# [20] = inhibitors of firefly luciferase expression or activity, dose response, H4 neuroglioma cells, luminescence (AID 1990); assay type: functional, cell-based
# [21] = inhibitors of SNCA 5'UTR-driven reporter translation, confirmation, H4 neuroglioma cells, luminescence (AID 1988); assay type: functional, cell-based
# Chain of Procathepsin L (P07711 whole entry): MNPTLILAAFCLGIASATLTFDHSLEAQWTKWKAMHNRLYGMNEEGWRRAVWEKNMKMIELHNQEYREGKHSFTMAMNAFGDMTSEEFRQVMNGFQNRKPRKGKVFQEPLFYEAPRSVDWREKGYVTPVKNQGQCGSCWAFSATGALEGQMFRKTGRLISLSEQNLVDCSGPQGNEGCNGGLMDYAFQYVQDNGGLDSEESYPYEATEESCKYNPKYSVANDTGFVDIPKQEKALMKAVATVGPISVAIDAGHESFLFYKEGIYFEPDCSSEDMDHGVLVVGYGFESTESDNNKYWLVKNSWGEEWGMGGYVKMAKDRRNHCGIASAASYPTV
# Chain of Cytochrome P450 2C19 (P33261 whole entry): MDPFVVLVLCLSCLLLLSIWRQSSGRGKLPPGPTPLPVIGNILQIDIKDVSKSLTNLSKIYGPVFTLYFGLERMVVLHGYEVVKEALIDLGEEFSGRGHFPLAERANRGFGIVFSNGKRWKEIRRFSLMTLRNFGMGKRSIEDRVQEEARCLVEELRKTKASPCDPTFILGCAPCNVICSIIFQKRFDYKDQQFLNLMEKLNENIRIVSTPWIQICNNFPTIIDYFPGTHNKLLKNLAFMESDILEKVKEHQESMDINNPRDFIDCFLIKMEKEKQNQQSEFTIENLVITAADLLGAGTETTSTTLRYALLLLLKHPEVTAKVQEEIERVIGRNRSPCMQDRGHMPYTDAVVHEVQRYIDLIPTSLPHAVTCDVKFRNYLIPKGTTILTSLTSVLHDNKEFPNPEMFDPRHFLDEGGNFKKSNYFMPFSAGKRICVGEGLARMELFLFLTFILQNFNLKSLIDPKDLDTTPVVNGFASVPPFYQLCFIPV
# Chain of Cytochrome P450 3A4 (P08684 whole entry): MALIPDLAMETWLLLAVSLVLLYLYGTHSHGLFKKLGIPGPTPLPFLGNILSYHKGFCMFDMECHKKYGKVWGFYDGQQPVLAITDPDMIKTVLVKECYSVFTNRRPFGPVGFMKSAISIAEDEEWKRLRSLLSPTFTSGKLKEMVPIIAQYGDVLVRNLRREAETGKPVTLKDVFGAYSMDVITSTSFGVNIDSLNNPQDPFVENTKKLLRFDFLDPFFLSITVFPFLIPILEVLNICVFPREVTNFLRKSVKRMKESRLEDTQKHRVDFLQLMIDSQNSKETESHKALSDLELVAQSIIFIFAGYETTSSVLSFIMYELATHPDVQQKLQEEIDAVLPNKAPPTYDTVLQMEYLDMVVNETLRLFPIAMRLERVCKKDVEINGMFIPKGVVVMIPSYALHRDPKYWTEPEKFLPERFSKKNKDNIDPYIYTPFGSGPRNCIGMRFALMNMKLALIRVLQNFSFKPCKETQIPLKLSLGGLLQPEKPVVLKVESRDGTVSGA
# Chain of Luciferin 4-monooxygenase (P08659 whole entry): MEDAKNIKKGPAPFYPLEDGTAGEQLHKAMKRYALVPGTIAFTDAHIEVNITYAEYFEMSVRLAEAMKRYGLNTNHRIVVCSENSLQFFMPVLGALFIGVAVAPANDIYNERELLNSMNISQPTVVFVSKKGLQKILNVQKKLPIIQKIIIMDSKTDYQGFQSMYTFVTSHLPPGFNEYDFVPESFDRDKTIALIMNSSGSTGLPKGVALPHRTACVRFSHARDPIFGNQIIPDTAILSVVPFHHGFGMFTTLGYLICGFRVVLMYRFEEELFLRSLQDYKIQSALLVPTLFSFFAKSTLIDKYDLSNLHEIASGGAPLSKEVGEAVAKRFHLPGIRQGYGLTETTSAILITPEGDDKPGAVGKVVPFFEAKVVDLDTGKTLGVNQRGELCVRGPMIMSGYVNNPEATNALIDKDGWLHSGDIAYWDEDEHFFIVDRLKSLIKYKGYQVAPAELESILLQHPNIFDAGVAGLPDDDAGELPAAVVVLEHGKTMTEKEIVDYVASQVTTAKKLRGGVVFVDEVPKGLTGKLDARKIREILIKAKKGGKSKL
smiles,measurement,setting,value
CC1(C)C2([N+](=O)[O-])CN3CC1([N+](=O)[O-])CN(C2)C3c1ccc(O)c(O)c1 (configuration not stated),IC50,Procathepsin L,> 59.6 µM (not active)
same,IC50,Aspartyl aminopeptidase,1.19 µM (active)
O=C(Nc1cccc(Cl)c1Cl)Nn1cnnc1,IC50,Procathepsin L,> 59.6 µM (not active)
same,IC50,Aspartyl aminopeptidase,0.631 µM (active)
Cc1cccc(OCCN2CSC(=S)N(C)C2)c1,CC50,[1],6.85 µM (active)
same,EC50,[2],> 112 µM (not active)
same,EC50,[3],6.24 µM (active)
same,IC50,cells,10.4 µM (active)
same,EC50,[4],> 112 µM (not active)
same,EC50,[5],7.66 µM (active)
same,CC50,[6],11.8 µM (active)
same,EC50,[7],6.23 µM (active)
same,CC50,Vero,7.62 µM (active)
same,AC50,[8],14.7 µM (active)
same,EC50,Protein RecA,12.5 µM (active)
same,EC50,[9],4.21 µM (active)
Cc1ccc(N2C(=O)/C(=C/Nn3cnnc3)c3ccccc3C2=O)cc1,AC50,Cytochrome P450 2C19,10 µM (inconclusive)
same,IC50,Procathepsin L,> 59.6 µM (not active)
same,AC50,Cytochrome P450 3A4,15.8 µM (inconclusive)
same,IC50,Aspartyl aminopeptidase,1.67 µM (active)
COc1ccc(/C=C2\SC(=S)N(CCC(=O)Nc3ccc(C(=O)O)cc3)C2=O)cc1,IC50,[10],> 80 µM (inactive)
same,IC50,[11],2.63 µM (active)
Cc1ccc(-c2nn3c(C)nnc3c3ccccc23)cc1S(=O)(=O)N1CCN(CCO)CC1,IC50,[10],> 80 µM (inactive)
CCc1ccc(/C=C2/SC(=S)N(CCC(=O)Nc3cccnc3)C2=O)cc1,EC50,[12],141 µM (active)
same,IC50,[10],> 80 µM (inactive)
same,EC50,BJ [13],> 150 µM (inconclusive)
same,EC50,[14],> 300 µM (inconclusive)
same,EC50,[15],12.8 µM (active)
same,EC50,BJ [16],> 66.7 µM (inactive)
same,EC50,BJ [17],2.88 µM (inconclusive)
same,EC50,BJ [18],> 75 µM (inconclusive)
Cc1nc2cc(-c3ccc(Cl)cc3)nn2c(C)c1CCC(=O)NC(C)c1ccc2c(c1)OCCO2 (configuration not stated),EC50,[19],11.6 µM (active)
same,IC50,[10],> 80 µM (inactive)
same,EC50,[20],< 0.1 µM (active)
Cc1ccc(CSc2nnc(SCC(=O)N/N=C/C=C/c3ccccc3[N+](=O)[O-])s2)cc1,EC50,[19],12.9 µM (active)
same,IC50,[10],> 80 µM (inactive)
same,EC50,[21],12.1 µM (active)
same,EC50,[20],9.7 µM (active)
Cc1ccc(N=C(S)Nn2cnnc2)c(C)c1,IC50,Procathepsin L,> 59.6 µM (not active)
same,IC50,Aspartyl aminopeptidase,2.11 µM (active)
Cc1cc(C)cc(C(=O)n2cnnc2N)c1,IC50,Procathepsin L,> 59.6 µM (not active)
same,IC50,Aspartyl aminopeptidase,2.89 µM (active)
